Results as given in patent US6750219B1, “Ω-amino-α-hydroxycarboxylic acid derivatives having integrin ανβ3 antagonistic activity” (Meiji Seika Kaisha, Ltd., priority 1999, dated 2004).

Experiments:
[1] = biological target: T1, integrin αvβ3 (vitronectin receptor purified from the human placenta) (Homo sapiens, UniProt P05106+P06756); test: αvβ3 binding assay (vitronectin-vitronectin receptor binding assay); conditions: vitronectin binding to vitronectin receptor purified from human placenta; read-out: integrin αvβ3 antagonistic activity (IC50)
T1 construct: a vitronectin receptor (protein content: 118 mg/ml) purified from the human placenta; from tissue; host or cells: human placenta
T1 sequence (P06756 31-889 limits assumed): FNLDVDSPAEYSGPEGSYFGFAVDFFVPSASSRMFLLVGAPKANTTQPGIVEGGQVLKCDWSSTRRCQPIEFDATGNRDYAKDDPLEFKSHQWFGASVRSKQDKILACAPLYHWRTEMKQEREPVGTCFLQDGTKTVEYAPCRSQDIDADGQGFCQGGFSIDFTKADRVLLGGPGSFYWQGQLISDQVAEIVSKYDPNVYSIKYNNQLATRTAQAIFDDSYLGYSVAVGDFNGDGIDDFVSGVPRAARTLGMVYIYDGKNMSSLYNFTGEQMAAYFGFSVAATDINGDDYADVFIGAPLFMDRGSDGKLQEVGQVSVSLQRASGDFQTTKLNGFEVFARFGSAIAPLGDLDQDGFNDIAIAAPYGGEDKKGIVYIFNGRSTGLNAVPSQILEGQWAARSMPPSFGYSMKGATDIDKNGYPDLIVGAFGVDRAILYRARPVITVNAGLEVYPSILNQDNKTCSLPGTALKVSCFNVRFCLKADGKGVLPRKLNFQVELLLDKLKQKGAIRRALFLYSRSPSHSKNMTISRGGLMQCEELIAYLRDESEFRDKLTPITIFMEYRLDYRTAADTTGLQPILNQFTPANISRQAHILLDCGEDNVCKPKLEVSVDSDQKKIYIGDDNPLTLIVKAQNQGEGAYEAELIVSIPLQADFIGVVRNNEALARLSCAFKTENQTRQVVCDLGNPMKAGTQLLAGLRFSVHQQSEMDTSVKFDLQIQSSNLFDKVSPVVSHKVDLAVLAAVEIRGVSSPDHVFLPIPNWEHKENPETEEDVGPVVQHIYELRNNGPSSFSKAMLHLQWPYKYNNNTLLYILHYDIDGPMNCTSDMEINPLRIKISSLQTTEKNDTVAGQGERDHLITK
T1 sequence (P06756 891-1048 limits assumed): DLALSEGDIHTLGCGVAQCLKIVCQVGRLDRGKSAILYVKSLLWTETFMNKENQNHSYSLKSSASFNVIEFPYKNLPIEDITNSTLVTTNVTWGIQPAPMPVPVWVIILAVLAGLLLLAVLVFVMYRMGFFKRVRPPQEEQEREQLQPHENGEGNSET
T1 sequence (P05106 27-788): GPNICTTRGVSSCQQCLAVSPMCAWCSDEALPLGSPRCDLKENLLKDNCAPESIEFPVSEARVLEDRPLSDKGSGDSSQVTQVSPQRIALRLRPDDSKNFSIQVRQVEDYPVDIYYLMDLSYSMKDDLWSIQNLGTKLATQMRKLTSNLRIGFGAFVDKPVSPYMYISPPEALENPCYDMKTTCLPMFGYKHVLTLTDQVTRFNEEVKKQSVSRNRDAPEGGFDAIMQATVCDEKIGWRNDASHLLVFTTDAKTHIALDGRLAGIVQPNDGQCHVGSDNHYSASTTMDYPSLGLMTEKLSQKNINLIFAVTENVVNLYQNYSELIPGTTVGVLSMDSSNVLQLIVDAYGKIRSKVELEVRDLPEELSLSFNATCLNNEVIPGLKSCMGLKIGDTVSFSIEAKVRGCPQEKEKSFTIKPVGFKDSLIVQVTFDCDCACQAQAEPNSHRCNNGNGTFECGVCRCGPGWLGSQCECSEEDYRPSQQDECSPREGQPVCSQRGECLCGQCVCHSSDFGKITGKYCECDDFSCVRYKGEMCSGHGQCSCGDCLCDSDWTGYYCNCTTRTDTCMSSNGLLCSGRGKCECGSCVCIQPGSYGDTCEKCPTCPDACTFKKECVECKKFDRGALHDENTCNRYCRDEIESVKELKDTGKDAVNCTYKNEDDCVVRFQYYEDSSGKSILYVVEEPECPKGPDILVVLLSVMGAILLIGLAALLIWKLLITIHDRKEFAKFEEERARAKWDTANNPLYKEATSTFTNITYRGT
Description: Pharmacological Test Example 1: αvβ3 Binding Assay
Integrin αvβ3 antagonistic activity was first measured in a vitronectin-vitronectin receptor binding assay system in accordance with the method of Kouns et al. (W. C. Kouns, D. Kirchhofer, P. Hadvary, A. Edenhofer, T. Weller, G. Pfenninger, H. R. Baumgartner, L. K. Jennings and B. Steiner, Blood, 80, 2539-2547 (1992)). […] A 0.1 M citric acid buffer (pH 4.3) containing 0.05% NaN3 was added in an amount of […] to stop the reaction, followed by the measurement of the absorbance at 415 nm with a microplate reader (MTP 32, Corona Electric) (reference: 675 nm). The total binding was defined as the absorbance after a reaction using 50 ml of TBS-Tween instead of the test compound, and the non-specific binding (100% inhibition) was defined as the absorbance after a reaction using 50 ml of TBS-Tween containing 2×10^−3 M RGDS. The inhibition was calculated by the following equation: [formula]
IC50 was determined from a primary regression line of the logarithm of each concentration of the test compound and the logarithm of (100-inhibition)/inhibition.

[2] = solubility in water; format: physicochemical; conditions: dihydrochloride; data omitted
[3] = biological target: GP IIb/IIIa (Homo sapiens, UniProt P05106+P08514); test: GP IIb/IIIa antagonistic activity (Pharmacological Test 2 in WO 94/21599); format: binding
GP IIb/IIIa, sequence (P08514 32-887 limits assumed): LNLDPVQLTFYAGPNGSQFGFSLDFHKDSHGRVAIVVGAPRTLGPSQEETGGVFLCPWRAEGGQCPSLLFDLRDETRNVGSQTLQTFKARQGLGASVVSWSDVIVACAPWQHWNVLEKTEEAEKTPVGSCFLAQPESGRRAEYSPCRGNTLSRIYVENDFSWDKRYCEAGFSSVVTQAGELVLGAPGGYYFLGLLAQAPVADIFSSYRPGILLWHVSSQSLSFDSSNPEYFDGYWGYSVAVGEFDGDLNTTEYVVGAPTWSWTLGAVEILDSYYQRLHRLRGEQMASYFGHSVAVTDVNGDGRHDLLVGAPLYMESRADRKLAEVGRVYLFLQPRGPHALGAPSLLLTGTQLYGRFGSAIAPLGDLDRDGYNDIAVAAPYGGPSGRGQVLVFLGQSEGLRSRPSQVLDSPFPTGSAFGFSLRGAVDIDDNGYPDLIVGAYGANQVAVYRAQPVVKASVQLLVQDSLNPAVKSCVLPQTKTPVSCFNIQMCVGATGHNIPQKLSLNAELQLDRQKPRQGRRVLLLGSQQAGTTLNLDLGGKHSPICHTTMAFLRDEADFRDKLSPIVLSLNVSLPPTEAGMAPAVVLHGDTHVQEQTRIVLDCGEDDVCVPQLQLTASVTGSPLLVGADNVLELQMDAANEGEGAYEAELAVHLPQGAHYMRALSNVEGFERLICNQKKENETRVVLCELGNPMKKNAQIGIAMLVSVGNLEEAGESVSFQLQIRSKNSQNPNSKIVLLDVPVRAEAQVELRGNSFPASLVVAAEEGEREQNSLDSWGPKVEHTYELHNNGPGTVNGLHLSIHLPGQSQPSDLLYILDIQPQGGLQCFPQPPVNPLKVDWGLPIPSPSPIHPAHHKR
GP IIb/IIIa, sequence (P08514 891-1039 limits assumed): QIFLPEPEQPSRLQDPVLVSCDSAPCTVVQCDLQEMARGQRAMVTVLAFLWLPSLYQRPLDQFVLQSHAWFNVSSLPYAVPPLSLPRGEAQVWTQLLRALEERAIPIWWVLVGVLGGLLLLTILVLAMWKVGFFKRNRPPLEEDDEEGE
GP IIb/IIIa, sequence (P05106 27-788): as the sequence (P05106 27-788) above
Description: Pharmacological Test Example 2: GP IIb/IIIa Antagonistic Activity and Human Platelet Aggregation Inhibitory Activity
GP IIb/IIIa antagonistic activity was measured for the compounds according to the present invention. The measurement of the GP IIb/IIIa antagonistic activity was carried out according to the method described in Pharmacological Test 2 in WO 94/21599.

SMILES	IC50 [1] [nM]	solubility in water [2]	IC50 [3] [nM]
O=C(NC[C@H](O)C(=O)O)c1ccc(N2CCC(NC3=NCCCN3)CC2)cc1 [Example 6, (2S)-Hydroxy-3-[4-{4-(1,4,5,6-tetrahydropyrimidin-2-ylamino)piperidin-1-yl}benzoylamino]-propionic acid]	23	soluble in water	4.8
O=C(NC[C@H](O)C(=O)O)c1ccc(N2CCC(NC3=NCCCN3)CC2)c(F)c1 [Example 14, 3-[3-Fluoro-4-{4-(1,4,5,6-tetrahydropyrimidin-2-ylamino)piperidin-1-yl}benzoylamino]-(2S)-hydroxypropionic acid]	2.8	soluble in water	12
